Consider one compound from US9187518B2, “Antiangiogenic brassinosteroid compounds” (CONSEJO NACIONAL DE INVESTIGACIONES CIENTIFICAS Y TECNICAS …, priority 2011, dated 2015).

The test system of one series is VEGF promoter. In words: VEGF expression (pVEGF-LUC reporter) in J774A.1 cells. It is filed as cell-based, murine. The source says: The expression vectors pVEGF-LUC (encoding firefly luciferase) and pβ-gal were kindly donated by members of the research group of Dr. Arzt (FCEyN, UBA, Argentina).
J774A.1 cells grown to confluence in 6-well micro-plates were transfected with […] of pVEGF-LUC and pβ-gal plasmids diluted in the Opti MEM medium, without serum and antibiotics, and in the presence of lipofectamine (DNA lipofectamine TM 2000) as a reagent for transfection, according to the manufacturer's instructions. After 4 to 6 h of incubation at 37° C. in 5% CO2 atmosphere, the medium was discarded and replaced by fresh Opti MEM with 10% FBS, without antibiotics, and incubated at 37° C. in atmosphere 5% CO2 for 24 h.
The medium was discarded and cells were stimulated with 100 ng/ml LPS and 1 ng/ml of IL-6 in Opti MEM medium with 10% FBS. After 8 h and 16 h stimulation, the medium was discarded and the cells were lifted by scrapping in 0.1 ml per well of 1× lysis buffer. The samples were stored at −70° C. until processing.
In order to measure luciferase activity, 20 μl of each sample were mixed with 80 μl of substrate for firefly luciferase and measured in a luminometer. In the same samples, β-gal activity was measured in 96-well microplates. To do this, 20 μl of each sample were mixed with 80 μl of substrate for β-galactosidase and incubated at 37° C. until color developed. The absorbances of these mixtures were read in an ELISA reader at 450 nm.
We determined the expression of luciferase as a reporter of VEGF promoter activity values obtained by normalizing the against β-gal activity for each sample.
Thus, J774A.1 cells grown in 6-well microplates were transfected with plasmids pVEGF-LUC and pβ-gal. At 24 h post-transfection, cells were stimulated with 100 ng/ml of LPS and […], in the absence and presence of […] of Compound 1. Then, we measured the expression of VEGF and β-gal in the harvested samples and determined the expression of luciferase as a reporter of VEGF promoter activity, by normalizing the values obtained with those of β-gal activity.

The next series has as its system human conjunctival cells. Nature of the series: Cytotoxicity assay, conjunctival cells. It is filed as cell-based. The protocol: Cell viability was determined as previously reported. The absorbance of each well was measured on a Eurogenetics MPR-A 4i microplate reader using a test wavelength of 570 nm and a reference wavelength of 630 nm. Results were expressed as a percentage of absorbance of treated cells with respect to untreated ones. The CC50 was defined as the concentration of compound that caused 50% reduction in cell viability.

The test system of another series is NF-κB p65 subunit. Nature of the series: NF-κB p65 nuclear translocation in HSV-1 infected IOBA-NHC and HCLE cells (IFI). It is filed as cell-based, human. The settings on record: 40 μM. As to the method: IOBA-NHC and HCLE cells monolayers grown on coverslips in 24-well plates were infected with 0.2 ml of HSV-1 KOS (m.o.i.=1) and incubated 1 h at 37° C. Then, the inoculums were removed and cells were coated with a DMEM/F12 without SFB, for 24 h at 37° C.
After incubation, cells were fixed in methanol at −20° C. for 10 min, and processed for indirect immunofluorescence (IFI) with antibodies directed against the glycoprotein D (gD) of HSV-1 and/or the p65 subunit of NF-κB. […]
The images obtained with a 40× magnification were imported into NIH Image J 1.34s program (designed by Wayne Rasband, NIMH, Bethesda). […] We analyzed the total and nuclear fluorescence of the individual cells and a mean fluorescence density was obtained for each. To compare the distribution of fluorescence within the cell, the results were analyzed in a spreadsheet (Excel®). The total fluorescence intensity or nuclear density was calculated as the total or nuclear average per total or nuclear area, respectively. Then, we calculated the percentage of nuclear intensity or the percentage of nuclear intensity with respect to the total intensity for each cell. Non-stimulated cells were processed to establish a baseline of nuclear fluorescence (cut-off value). […]

Structures are written as SMILES.

In the case of `CC[C@@H](C(C)C)[C@H](O)[C@@H](O)[C@@H](C)[C@H]1CC[C@H]2[C@@H]3CCC4=CC(=O)CC[C@]4(C)[C@H]3CC[C@]12C` [Compound 1, (22S,23S)-22,23-dihydroxystigmast-4-en-3-one], the “VEGF expression (luciferase normalized to β-gal, VEGF/β-gal)” value in the series with VEGF promoter (100 ng/ml LPS 8 h, Compound 1 (stimulated untreated 93201.5±26770.4)) is 22098.5±4052.4; with VEGF promoter (IL-6 16 h, Compound 1 (stimulated untreated 30929.5±5464)), 17900±2689.7. Besides, in the series with VEGF promoter (no stimulus, compound alone, vs baseline), the “VEGF expression (luciferase normalized to β-gal)” value was “did not induce the expression of VEGF”. The cytotoxicity entry in the series on human conjunctival cells is reported as “no cytotoxicity”. For the same compound, the figures for the “percentage of cells exhibiting NF-κB translocation to the nucleus” value in the series on NF-κB p65 subunit (HCLE cells infected with HSV-1 (m.o.i.=1)) and with NF-κB p65 subunit (IOBA-NHC cells infected with HSV-1 (m.o.i.=1)) were 5.7% and 22.2±1.2%, respectively.
